The numbers were not newly measured in publication PMC11555526, “Development of 2-Aminoadenine-Based Proteolysis-Targeting Chimeras (PROTACs) as Novel Potent Degraders of Monopolar Spindle 1 and Aurora Kinases” (ACS Pharmacology & Translational Science, 2024), which cites them from elsewhere.

The data set has as its system AURKC. Conditions: read-out: AURKC IC50; literature value, introduction; cited from earlier work.

Take `c1nc2nc(Nc3ccc(N4CCOCC4)cc3)nc(NC3CCCCC3)c2[nH]1` [Reversine]: the IC50 is 400 nM.

In general, IC50 refers to the midpoint of a concentration-inhibition curve.
